Reference: patent publication US20130065227A1, “METHODS OF INCREASING MACROPINOCYTOSIS IN CANCER CELLS” (priority 2010, published 2013)
Residues, ends and D or L forms follow the SMILES beside them. *: point of attachment. Cbz = O=C(OCc1ccccc1)*; CH2F = FC*

Experiments:
[1] = system: DU145 cells; test: Uptake of fluorophore-labeled oligonucleotides by flow cytometry; assay type: cell-based
Procedure: (§1) FIG. 1 are graphs showing that AS1411 cell internalization is an active process. Cells were plated 18 h before uptake analysis. After incubation as described, cells were washed with ice-cold PBS, incubated with 1 μg/ml 7-AAD, harvested and resuspended in 1% paraformaldehyde containing 2 μg/ml actinomycin D, then analyzed by flow cytometry. (Panel A) DU145 cells were incubated at 37° C. with fresh complete DMEM medium containing 10 μM FL-AS1411 (black line) or 10 μM FL-CRO (gray line) for the time indicated. (Panel B) DU145 cells were incubated for 2 h at 37° C. in complete or serum-free DMEM medium containing 10 μM FL-AS1411, or 10 μM FL-CRO, or no oligonucleotide. (Panel C) Various cell lines were incubated with 10 μM FL-AS1411 (black outline histogram), 10 μM FL-CRO (gray outline histogram) or without DNA (solid gray histogram) at 37° C. or 4° C. for 2 h. All experiments were repeated at least three times. Data are mean of three independent samples; bars, SE; *(p<0.05).
(§2) FIG. 2 are graphs showing that AS1411 is internalized by different endocytic mechanisms in DU145 cancer cells and in non-malignant Hs27 cells. DU145 or Hs27 cells were plated 18 h before uptake analysis. Cells were pre-treated as described with inhibitor (gray histogram) or the corresponding vehicle control (black histogram) before addition of 10 μM FL-AS1411 and incubation at 37° C. for 2 h. After incubation, cells were harvested and analyzed by flow cytometry. Pre-treatment conditions were at 37° C. with: (Panel A) 5 μM Cytochalasin D for 30 min; (Panel B) 80 μM Dynasore for 30 min; or (Panel C) 3 mM amiloride for 1 h. All experiments were repeated at least three times and representative data are shown. Solid gray histograms represent background autofluorescence of unstained cells.
DU145 cells were transfected for 48 h without siRNA (mock, M), or with 30 nM of one of three different nucleolin siRNAs (NCL1, NCL2, NCL3) or a control siRNA (scramble, S), or contransfected with 10 nM of each nucleolin siRNAs (mix). (Panel A) Cells were lysed and total cell lyses were analyzed by Western blotting using the antibodies shown. (Panel B) Cell-surface proteins from intact transfected DU145 cells were labeled covalently with membrane-impermeable biotinylating agent. Cells were lysed, then biotinylated plasma membrane proteins were captured with streptavidin-agarose beads and analyzed by blotting with anti-nucleolin antibody (upper panel). After stripping, the membrane was reprobed with antibodies for a plasma membrane marker (anti-pan Cadherin) and a nuclear marker (anti-histone 3) to confirm the fractionation. Total lysate (Lys) was used as control. (Panel C) The medium of transfected cells was replaced by fresh complete DMEM medium containing no oligonucleotide (gray dashed histogram) or 10 μM FL-CRO (gray solid line histogram) or 10 μM FL-AS1411 (black solid line histogram) and incubated at 37° C. for 2 h. After incubation, cells were harvested and analyzed by flow cytometry.
DU145 cells were plated 18 hr before uptake analysis. Cell medium was changed with fresh complete DMEM medium containing different concentrations of FL-AS1411 (black line) or FL-CRO (gray line), and incubated at 37° C. for 2 hrs. After incubation, cells were harvested and analyzed by flow cytometry.
FIG. 9 are graphs showing the effects of inhibitors on various endocytic pathways. DU145 or Hs27 cells were plated 18 hr before uptake analysis. (Panel A) DU145 cells were pre-treated with dynamin inhibitor, […] Dynasore (black histogram) or DMSO (gray histogram) for 30 min at 37° C. After pre-treatment, cells were treated with […] transferrin conjugated with Alexa Fluor 488 for 30 min at 37° C. (Panel B) DU145 and Hs27 cells were pre-treated with 3 mM amiloride (black histogram) or vehicle (serum-free medium, gray histogram) for 1 h at 37° C. After pre-treatment, FL-CRO was added at a concentration of 10 μM and incubated at 37° C. for 2 h. After incubation, cells were harvested and analyzed by FACS. […]

[2] = system: Hs27 cells; test: as above; assay type: cell-based, human
Procedure: as §1, §2
FIG. 9 are graphs showing the effects of inhibitors on various endocytic pathways. DU145 or Hs27 cells were plated 18 hr before uptake analysis. (Panel A) DU145 cells were pre-treated with dynamin inhibitor, […] Dynasore (black histogram) or DMSO (gray histogram) for 30 min at 37° C. After pre-treatment, cells were treated with […] transferrin conjugated with Alexa Fluor 488 for 30 min at 37° C. (Panel B) DU145 and Hs27 cells were pre-treated with 3 mM amiloride (black histogram) or vehicle (serum-free medium, gray histogram) for 1 h at 37° C. After pre-treatment, FL-CRO was added at a concentration of 10 μM and incubated at 37° C. for 2 h. After incubation, cells were harvested and analyzed by FACS. Gray solid histogram represents unstained cells.
To analyze uptake of the oligodeoxynucleotides or dextran-10K (macropinocytic marker) by flow cytometry, 2×10^5 cells in fresh supplemented culture medium (2.5 ml) were plated into 6-well plates for 18 h. […]

[3] = system: DU145; test: Stimulation of macropinocytosis (dextran uptake); assay type: cell-based; conditions: 10 μM for 24, 48, or 72 h, flow cytometry
Procedure: (Panel A) DU145 cells were treated with 10 μM tAS1411 or 10 μM tCRO or no oligonucleotide in complete DMEM medium at 37° C. for the time indicated. After treatment, cell medium was changed for fresh complete medium containing 0.2 mg/ml dextran-10K labeled with Alexa Fluor 488, and cells were incubated for 30 min at 37° C. After incubation, cells were harvested and analyzed by flow cytometry to determine dextran uptake. (Panel B) The same experiment was performed using Hs27 cells. (Panel C) DU145 cells were treated with 10 μM tAS1411 or 10 μM tCRO or no oligonucleotide in complete DMEM medium at 37° C. for 48 h. After treatment, cell medium was changed for fresh complete medium containing 0.2 mg/ml dextran-10K tagged with Alexa Fluor 488, and cells were incubated for 30 min at 37° C. Then, cells were washed with cold PBS, added PBS containing 5 μg/ml PI and incubated on ice for 5 min. After washing with cold PBS, cells were fixed and the distribution of macropinocytic marker was visualized by confocal microscopy. The nucleus was stained with DAPI (blue). Scale bars, 10 μm. All experiments have been repeated at least three times. Data are mean of three independent samples; bars, SE; *(p<0.05).
FIG. 6 are graphs showing that nucleolin regulates AS1411-induced stimulation of macropinocytosis. DU145 cells were untreated (no transfection) or transfected, without siRNA (mock), or with 30 nM of one of three different nucleolin siRNAs (NCL1, NCL2, NCL3) or a control siRNA (scramble). 48 h after transfection, cells were incubated with 10 μM tAS1411, 10 μM tCRO, or no oligonucleotide in complete DMEM medium at 37° C. for 24 h. (Panel A) After treatment, cell medium was changed for fresh complete medium containing 0.2 mg/ml dextran-10K labeled with Alexa Fluor 488 (green) and incubated for 30 min at 37° C. (Panel B) After treatment, some cells were washed, fresh complete medium containing 10 μM FL-AS1411 added and incubated for 2 h at 37° C. After incubation, cells were harvested and analyzed by flow cytometry. Mean fluorescence was normalized to “not transfected” control (Panel A) or to no pre-treatment control (Panel B). All experiments have been repeated at least three times. Data are the mean of three independent samples; bars, SE; *(p<0.05).
FIG. 11 is a graph showing a comparison between AS1411 and tAS1411 in the ability to stimulate macropinocytosis. DU145 cells were plated 18 hr before treatment with different concentrations (0, 5, 10, or 15 μM) of AS1411, tAS1411 or tCRO in complete DMEM medium at 37° C. for 48 h. After treatment, cell medium was changed for fresh complete medium containing 0.2 mg/ml dextran-10K labeled with Alexa Fluor 488, and cells were incubated for 30 min at 37° C. After incubation, cells were incubated on ice with […] PI in PBS, harvested, fixed and immediately analyzed by flow cytometry.
(§3) To analyze uptake of the oligodeoxynucleotides or dextran-10K (macropinocytic marker) by flow cytometry, 2×10^5 cells in fresh supplemented culture medium (2.5 ml) were plated into 6-well plates for 18 h. After complete adhesion, the cells were incubated with 5′-FAM tagged oligodeoxynucleotides or Alexa Fluor 488 tagged dextran-10K and incubated as indicated in the Description of the Drawings. Cells were washed once with ice-cold PBS, incubated with 1 μg/ml 7-amino-actinomycin D (7-AAD) for 5 min on ice or 1 μg/ml propidium iodide (PI), and washed twice with ice-cold PBS. Cells were then treated with 0.01% trypsin/0.5 mM EDTA (300 μl) for 3 min prior addition 3 ml supplemented culture medium. The cells were then centrifuged and resuspended in 0.5 ml of 1% paraformaldehyde for analysis by flow cytometry using a FACScalibur cytometer (BD Biosciences, Mountain View, Calif.).
AS1411 causes a change in cancer cell morphology that is characterized by vacuolization, irregular nuclei, and swollen cells (Xu et al., 2001, J. Biol. Chem., 276:43221-30). […]

[4] = system: U937 leukemia cells; test: Cell death mechanism (DNA laddering, immunoblotting, electron microscopy); assay type: cell-based
Procedure: (A) Trypan blue staining of U937 leukemia cells showing percentage of dead cells (trypan blue positive) over time. (B) U937 cells were untreated (Un) or treated with 1 μM AS1411 (1411) or control oligonucleotide (Ctrl) for 72 h. DNA was extracted, electrophoresed on an agarose gel and stained with ethidium bromide to probe DNA laddering. As a positive control, […] were treated with UV irradiation to induce apoptosis as previously described. […] (D) U937 cells treated as described for panel B, followed by protein extraction and immunoblotting (IB) to detect PARP cleavage and Caspase-3 activation. (E) DU145 prostate cancer cells were incubated with 10 μM of AS1411 for 24 h, or irradiated with UV (300 J/m^2 with UV Stratalinker 2400, Strategene), then cultured in fresh medium for 6 h. Assessment of cell death was carried out by flow cytometry to detect Annexin V-FITC binding and PI staining.

[5] = system: DU145 cells; assay type: cell-based
Procedure: DU145 cells were incubated for 4 days in the presence of 10 μM AS1411 with 3-MA at the concentration indicated, and cell number was assessed by MTT assay.
It also appears unlikely that AS1411-induced cell death is due to autophagy. […] Further evidence that supports the idea that AS1411 can induce methuosis comes from the similarity between the appearance of cells treated with AS1411 and published images of glioblastoma cells undergoing Ras-induced methuosis.

[6] = system: MCF7; test: Uptake of AS1411 by macropinocytosis (MP); assay type: cell-based; conditions: amiloride treatment, MCF7 cells
From the text: (§4) There was little effect of amiloride treatment on uptake of FL-CRO in either DU145 cancer cells or non-malignant Hs27 cells (FIG. 9B). […] These studies also confirmed the previous results that there was higher overall uptake of FL-AS1411 in Hs27 cells than in DU145 cells.
(§5) It has recently been discovered that AS1411 can stimulate macropinocytosis (MP) in cancer cells and this finding was verified by several different methods and in multiple cancer cell lines (Table 1).

[7] = system: MDA-MB-231; test: Uptake of AS1411 by macropinocytosis (MP); assay type: cell-based; conditions: amiloride treatment, MDA-MB-231 cells
From the text: as §4, §5

[8] = system: DU145; test: Uptake of AS1411 by macropinocytosis (MP); assay type: cell-based; conditions: 3 mM amiloride for 1 h, then 10 μM FL-AS1411 2 h
Procedure: as §2
as §3, with “Cells were then treated with 0.01% trypsin/0.5 mM EDTA (300 μl) for 3 min prior addition 3 ml supplemented culture medium. The cells were then centrifuged and resuspended in 0.5 ml of 1% paraformaldehyde for analysis by flow cytometry using a FACScalibur cytometer (BD Biosciences, Mountain View, Calif.).” left out

[9] = 5 μM cytochalasin D for 30 min, then 10 μM FL-AS1411 2 h
[10] = 3 mM amiloride for 1 h, then 10 μM FL-CRO 2 h

With `C=C1[C@@H](C)[C@H]2[C@H](Cc3ccccc3)NC(=O)[C@]23[C@H](OC(C)=O)/C=C/[C@@](C)(O)C(=O)[C@@H](C)C/C=C/[C@H]3[C@@H]1O` [Cytocholasin D, Cytochalasin D, reference compound] the “effect of pre-treatment on FL-AS1411 uptake” value (shortened to “effect of pre-treatment”) [1, 9] was “decrease in FL-AS1411 uptake” and the “effect of pre-treatment” value [2, 9] was “decrease in FL-AS1411 uptake”.
“5′-d(TTTCCTCCTCCTCCTTCTCCTCCTCCTCC) (DNA TTTCCTCCTCCTCCTTCTCCTCCTCCTCC; unmodified DNA) [tCRO, reference compound]” was tested, and the “uptake of the macropinocytic marker, dextran, after treatment” value [3] was “No changes in dextran uptake”.
For `COC(=O)CC[C@H](NC(=O)[C@H](CC(=O)OC)NC(=O)OCc1ccccc1)C(=O)N[C@H](C(=O)N[C@@H](CC(=O)OC)C(=O)CF)C(C)C` [zDEVD-fmk], the “effect of pre-incubation on AS1411-induced cell death” value (“effect of pre-incubation” for short) [4] was “did not inhibit AS1411-induced cell death”.
In the case of `Cn1cnc(N)c2ncnc1-2` [3-methyladenine], the “toxicity of the inhibitor alone” value [5] is reported as “some toxicity by itself” and the “effect on AS1411 activity” value ([5]; 4 days, 10 μM AS1411) is reported as “did not inhibit AS1411 activity”.
With `COC(=O)C[C@H](NC(=O)[C@H](C)NC(=O)[C@@H](NC(=O)OCc1ccccc1)C(C)C)C(=O)CF` [zVAD-fmk] (Cbz-Val-Ala-Asp(OMe)-CH2F) the “effect of pre-incubation” value [4] was “did not inhibit AS1411-induced cell death”.
In the case of `N=C(N)NC(=O)c1nc(Cl)c(N)nc1N` [amiloride, reference compound], the “effect of treatment on uptake of FL-CRO” value [1, 10] is reported as “little effect”, the “effect of treatment on AS1411 uptake” value [6] is reported as “affected the AS1411 uptake” and the “effect of treatment on AS1411 uptake” value [7] is reported as “affected the AS1411 uptake”. For the same compound, the “effect of pre-treatment” value [8] was “reduction in FL-AS1411 uptake” and the “effect of treatment on uptake of FL-CRO” value [2, 10] was “little effect”.
In the case of `CC[C@H](C)[C@H](NC(=O)OCc1ccccc1)C(=O)N[C@@H](CCC(=O)OC)C(=O)N[C@H](C(=O)N[C@@H](CC(=O)OC)C(=O)CF)[C@@H](C)O` [zIETD-fmk] (Cbz-IE(OMe)TD(OMe)-CH2F), the “effect of pre-incubation” value [4] is reported as “did not inhibit AS1411-induced cell death”.
In the case of `NC(=O)c1cccc(N)c1` [3-aminobenzamide], the “effect of pre-incubation” value [4] is reported as “did not inhibit AS1411-induced cell death”.
For `COC(=O)CC[C@H](NC(=O)[C@H](CC(C)C)NC(=O)OCc1ccccc1)C(=O)N[C@@H](Cc1cnc[nH]1)C(=O)N[C@@H](CC(=O)OC)C(=O)CF` [zLEHD-fmk] (Cbz-LE(OMe)HD(OMe)-CH2F), the “effect of pre-incubation” value [4] was “did not inhibit AS1411-induced cell death”.
